From US20130171141A1, “COMBINATION OF HDAC INHIBITORS WITH THROMBOCYTOPENIA DRUGS” (NOVARTIS AG, priority 2010, published 2013)

Experiments:
[1] = system: murine platelet lifespan; test: Platelet clearance analysis (biotinylated platelet lifespan) in HDACi-treated mice; settings: for decrease in labelled (biotinylated) platelets in peripheral blood over time: IV NHS-biotin, seven days, 10 mg/kg panobinostat IP or 1 mg/kg romidepsin IP daily, compared to vehicle
Description: Mice were twice injected intravenously (IV), one hour apart, with 600 μg NHS-biotin in phospho-buffered saline (PBS) and 10% dimethyl sulphoxide (DMSO). At various time points peripheral blood was isolated from the tail, and 1 μl blood was washed twice in PBS and 10 mM EDTA. Platelets were stained with phycoerythrin-conjugated rat anti-CD41 and allophycocyanin-conjugated streptavidin (APC-A) for 30 minutes on ice. Samples were washed again and incubated with 0.125 μg/ml thiazole orange, which has increased uptake in high RNA-containing platelets, staining younger, reticulated platelet fraction, for 90 minutes. Flow cytometry was then performed on an LSR flow cytometer. By plotting the number of biotinylated platelets against time, an estimate of the life span was obtained by linear extrapolation, while the number of thiazole orange-positive, non-biotinylated platelets provided an estimate of new platelet production.
The mice were then treated for seven days with either 10 mg/kg panobinostat IP or 1 mg/kg romidepsin IP daily or vehicle, and the number of biotinylated platelets in peripheral blood was determined. […] ABT-737 is a BH3 mimetic that inhibits Bcl-xL, which causes direct platelet apoptosis. […] Megakaryocytes are the haematopoietic cells responsible for the production of platelets which reside in the bone marrow.

[2] = system: reticulated platelets; test: Reticulated platelet staining (thiazole orange), new platelet production; type: in vivo, C57BL/6 mice; settings: for absolute number of reticulated (new) platelets: 6 day experiment, thiazole orange, FIG. 2
Description: To assess platelet production, C57BL/6 mice were treated with panobinostat, carboplatin and ABT-737, and the RNA-containing platelet fraction (i.e. new platelets) was determined by staining with thiazole orange (FIG. 2). The number of new, reticulated platelets in vehicle-treated mice remained relatively constant over the 6 day time span of the experiment.

[3] = system: platelet count; test: Compound III with eltrombopag in multiple myeloma patient; type: in vivo, human; settings: recommended dosage of compound III, Example 3
Description: (§1) A patient having multiple myeloma patient is given the recommend dosage of compound III. […] A patient having Hodgkin's lymphoma is tested for thrombocytopenia. Patient is found to have a low blood cell count or a biomarker for thrombocytopenia. Patient is put on a regimen of compound III together with eltrombopag.

[4] = system: platelet count; test: Compound III with eltrombopag in Hodgkin's lymphoma patient; type: in vivo, human; settings: recommended dosage of compound III, Example 1
Description: as §1, with “Hodgkin's lymphoma” for “multiple myeloma patient”

[5] = system: thrombocytopenia (TCP); test: HDACi-induced thrombocytopenia and co-treatment with TPO-mimetic; type: in vivo; settings: wild-type C57BL/6 mice, 10 mg/kg IP daily, 12-day period
Description: To determine whether administration of a TPO-mimetic could ameliorate TCP, some of the panobinostat-treated mice were subjected to co-treatment with 20 μg/kg AMP-4 at day 0 and day 6 (FIG. 3).
To determine whether administration of a TPO-mimetic could ameliorate TCP, some of the romidepsin-treated mice were subjected to co-treatment with 20 μg/kg AMP-4 at day 0 and day 6 (FIG. 4).

Compound	reduction in platelet number ([1]; biotinylated platelets, two hours following administration) [%]	decrease in labelled (biotinylated) platelets in peripheral blood over time ([1]; mice, FIG. 1)	absolute number of reticulated (new) platelets ([2]; C57BL/6 mice)	platelet life span ([1]; mice, FIG. 1)	absolute reticulated platelet numbers ([2]; 6 days after the commencement of treatment)	new platelet production ([2]; first 4 days of treatment)	platelet count versus baseline ([2]; C57BL/6 mice, throughout the course of the experiment)	patient's platelet count [3]	patient's platelet count [4]	thrombocytopenia (TCP) [5]
CN(C)CC[C@H](CSc1ccccc1)Nc1ccc(S(=O)(=O)NC(=O)c2ccc(N3CCN(Cc4ccccc4-c4ccc(Cl)cc4)CC3)cc2)cc1[N+](=O)[O-] [ABT-737]	50	rapidly reduced	substantial increase	–	–	–	–	–	–	–
N.N.O=C([O-])C1(C(=O)[O-])CCC1.[Pt+2] [carboplatin]	–	–	–	did not affect	significantly reduced	did not significantly affect	–	–	–	–
Cc1[nH]c2ccccc2c1CCNCc1ccc(/C=C/C(=O)NO)cc1 [panobinostat, N-hydroxy-3-[4-[[[2-(2-methyl-1H-indol-3-yl)-ethyl]-amino]methyl]phenyl]-2E-2-propenamide]	–	remained similar to vehicle-treated mice	dramatic decrease	–	–	–	remained well below baseline levels	begins to lower	begins to lower	sustained TCP
C/C=C1\NC(=O)[C@H]2CSSCC/C=C/[C@H](CC(=O)N[C@H](C(C)C)C(=O)N2)OC(=O)[C@H](C(C)C)NC1=O [romidepsin]	–	remained similar to vehicle-treated mice	–	–	–	–	–	–	–	sustained TCP
